Assay results from US5440012A, “Calcitonin and method for the preparation and use thereof” (Sumitomo Metal Industries, Ltd., priority 1991, dated 1995).
Positions of bridges follow the written chain, without caps; N, C: chain ends. Residues, ends and D or L forms follow the SMILES beside them.

Experiments:
[1] = tested on: concentration of calcium in the serum; test: Blood calcium-decreasing activity in rats (serum calcium, parallel line assay); assay type: in vivo, Male Wistar rats
Procedure: The physiological activities of the pure naturally-occurring stingray calcitonin extracted from the ultimobranchial gland of a stingray and those of synthetic stingray calcitonin obtained in the above-described manner were determined according to the technique of Homma et al (J. Biochem. 100: 459-467, 1986).
Male Wistar rats weighing 90-110 grams (10 animals in each group) which had fasted for 24 hours prior to the experiment were intravenously injected with a standard solution of salmon calcitonin or eel calcitonin or a solution of the synthetic stingray calcitonin (produced in Example 2) each dissolved in an aqueous 0.9% sodium chloride solution (pH 4.6) containing 0.1% bovine serum albumin at a dose of 1 pmol or 10 pmol per animal. Exactly one hour after the administration, a blood sample was collected from the artery of each test animal and the concentration of calcium in the serum was determined by atomic absorption spectroscopy. Based on the values for serum calcium concentration in rats of the groups in which one of the standard solutions was administered at a dose of 1 pmol or 10 pmol per animal and those in rats of the group in which the stingray calcitonin of the present invention was administered at the same dose, the relative titer of the stingray calcitonin was determined by the standard statistical procedures for parallel line assays. […]

[2] = tested on: grown cartilage cell culture of rabbit costal cartilage; test: Alkaline phosphatase activity per protein in rabbit costal cartilage cell culture (chondrocyte differentiation); assay type: cell-based; conditions: 10 μl of 10^-12 mol/ml calcitonin solution added on fourth and sixth days, 9 days incubation; control about 88,150
Procedure: When their physiological activities on cartilage cells or chondrocytes were determined according to the technique of Bessey et al (J. Biol. Chem. 164: 321-329, 1964) and that of Lowry et al (J. Biol. Chem. 193: 265-275, 1951), a strong cell differentiation-promoting activity was noted. […]
After incubation for 9 days, the cell layer (1) was recovered and the alkaline phosphatase activity in each well was determined by the method of Bessey et al (J. Biol. Chem. 164: 321-329, 1946) using p-nitrophenylphosphoric acid as a substrate.
The amount of protein in each well was also determined by assaying the recovered cell layer (1) in accordance with the method of Lowry et al (J. Biol. Chem. 193: 265-275, 1951) using bovine serum albumin as a standard substance.
The value for alkaline phosphatase activity per unit weight of protein was calculated from the values for alkaline phosphatase activity and amount of protein determined as above. The calculated value of the control was about 88,150 nmol/30 min/mg-protein. […]

CC[C@H](C)[C@H](NC(=O)[C@H](CC(N)=O)NC(=O)[C@H](CCC(N)=O)NC(=O)[C@H](CC(C)C)NC(=O)[C@H](CCCCN)NC(=O)[C@H](Cc1c[nH]cn1)NC(=O)[C@H](CC(C)C)NC(=O)[C@H](CCC(N)=O)NC(=O)[C@H](CCC(N)=O)NC(=O)[C@H](CO)NC(=O)[C@H](CC(C)C)NC(=O)[C@H](CCCCN)NC(=O)CNC(=O)[C@@H](NC(=O)[C@@H](NC(=O)[C@@H]1CSSC[C@H](N)C(=O)N[C@@H]([C@@H](C)O)C(=O)N[C@@H](CO)C(=O)N[C@@H](CC(C)C)C(=O)N[C@@H](CO)C(=O)N[C@@H]([C@@H](C)O)C(=O)N1)C(C)C)C(C)C)C(=O)N[C@@H](CCC(N)=O)C(=O)N[C@@H](CCCNC(=N)N)C(=O)N[C@H](C(=O)N[C@@H](CC(=O)O)C(=O)N[C@H](C(=O)NCC(=O)N[C@@H](C)C(=O)N[C@@H](C)C(=O)N[C@H](C(=O)N1CCC[C@H]1C(N)=O)[C@@H](C)O)C(C)C)[C@@H](C)O [calcitonin of the present invention] (H-CTSLSTCVVGKLSQQLHKLQNIQRTDVGAATP-NH2; disulfide 1-7)
titer (blood calcium-decreasing activity) ([1]; rats, intravenous, 1 pmol or 10 pmol per animal, serum calcium one hour after administration, salmon and eel calcitonin used as standard substances): about 3770 IU/mg
blood calcium-decreasing activity (in words) ([1]; technique of Homma et al): strong blood calcium-decreasing activity
alkaline phosphatase activity per unit weight of protein [2]: about 106,000 nmol/30 min/mg-protein
